Experimental data published in ChEMBL document CHEMBL3813603, “Selective anti-malarial minor groove binders” (Bioorg Med Chem Lett, 2016).

Assays:
[1] = (§1) Cytotoxicity against HEK293 cells at 20 uM by alamar blue assay; format: cell-based; settings: human, HEK293 cells; read-out: INH
[2] = Therapeutic ratio of IC50 for HEK293 cells to IC50 for Plasmodium falciparum 3D7; format: cell-based; settings: human, HEK293 cells versus Plasmodium falciparum 3D7; read-out: Ratio IC50
Plasmodium falciparum [3] = test: Antimalarial activity against Plasmodium falciparum Dd2 incubated for 72 hours by DAPI-staining based confocal imaging analysis; format: functional, organism-based; settings: Dd2, 72 h
Plasmodium falciparum [4] = test: Antimalarial activity against Plasmodium falciparum 3D7 incubated for 72 hours by DAPI-staining based confocal imaging analysis; format: functional, organism-based
HEK293 [5] = test: as §1; format: cell-based; settings: human, hek293, 20 µM
Plasmodium falciparum [6] = test: Antimalarial activity against Plasmodium falciparum Dd2 at 20 uM incubated for 72 hours by DAPI-staining based confocal imaging analysis; format: functional; settings: Dd2, 72 h
Plasmodium falciparum [7] = test: Antimalarial activity against Plasmodium falciparum 3D7 at 20 uM incubated for 72 hours by DAPI-staining based confocal imaging analysis; format: functional; settings: 3D7, 72 h
[8] = Cytotoxicity against HEK293 cells at 10 uM by alamar blue assay; format: cell-based; settings: human, read-out: INH
HEK293 [9] = test: Cytotoxicity against HEK293 cells by alamar blue assay; format: cell-based; settings: Homo sapiens
[10] = Plasmodium falciparum, 3D7, 72 h, read-out: IC50

IC50 (Plasmodium falciparum [3]) | IC50 (Plasmodium falciparum [4]; [10]) | Compound | selectivity ratio [2] | Activity (HEK293 [5]) | further results
1130 nM | 544 nM | COc1cccc(/C=C/c2ccc(C(=O)Nc3cc(C(=O)Nc4nc(C(=O)NCCCN(C)C)c(CCC(C)C)s4)n(C)c3)cc2)c1 | > 36 | – | cytotoxicity at 20 µM [1]: 86%
– | – | CN(C)CCCNC(=O)c1cc(NC(=O)c2cc(NC(=O)c3cc(NC(=N)c4ccccc4)cn3C)cn2C)cn1C | – | Non-toxic | inhibition at 20 µM (Plasmodium falciparum [6]): 63%; inhibition at 20 µM (Plasmodium falciparum [7]): 90%
1900 nM | 1770 nM | CSc1ccc(/C=C/c2ccc3cc(C(=O)Nc4cc(C(=O)Nc5cc(C(=O)NCCN6CCOCC6)n(C)c5)n(C)c4)ccc3n2)cc1 | – | Non-toxic | –
6460 nM | 6420 nM | CC(=N)Nc1cc(C(=O)Nc2cc(C(=O)Nc3cc(C(=O)NCCCN(C)C)n(C)c3)n(C)c2)n(C)c1 | – | Non-toxic | –
241 nM | 103 nM | CC(C)CCc1sc(NC(=O)c2cc(NC(=O)c3ccc(/C=C/c4ccc5ccccc5n4)cc3)cn2C)nc1C(=O)NCCN1CCOCC1 | – | Non-toxic | –
2990 nM | 1950 nM | COc1ccc(/C=C/c2ccc3cc(C(=O)Nc4cc(C(=O)Nc5cc(C(=O)NCCN6CCOCC6)n(C)c5)n(C)c4)ccc3n2)cc1 | – | Non-toxic | –
5990 nM | 7860 nM | Cn1cc(NC(=O)c2cc(NC(=O)c3cc(NC(=O)c4cc5ccccc5cn4)cn3C)cn2C)cc1C(=O)NCCCN1CCOCC1 | – | Non-toxic | –
5140 nM | 6040 nM | Cn1cc(NC(=O)c2cc(NC(=O)c3ccc(/C=C/c4ccc5nsnc5c4)cc3)cn2C)cc1C(=O)NCCN1CCOCC1 | – | Non-toxic | –
4350 nM | 4700 nM | CN(C)CCCNC(=O)c1cc(NC(=O)c2cc(NC(=O)c3cc4ccccc4cn3)cn2C)cn1C | – | Non-toxic | –
– | 9980 nM | COc1cccc(C(=N)Nc2cc(C(=O)Nc3cc(C(=O)Nc4cc(C(=O)NCCCN(C)C)n(C)c4)n(C(C)C)c3)n(C)c2)c1 | – | Non-toxic | inhibition at 20 µM (Plasmodium falciparum [6]): 100%
3620 nM | 3040 nM | Cn1cc(NC(=O)c2cc(NC(=O)c3cc(NC(=O)c4ccc(Cl)cc4Cl)cn3C)cn2C)cc1C(=O)NCCCN1CCOCC1 | – | Non-toxic | –
3690 nM | 3570 nM | Cn1cc(NC(=O)c2cc(NC(=O)c3ccc(/C=C/c4ccc(C(F)(F)F)cc4)cc3)cn2C)cc1C(=O)NCCN1CCOCC1 | – | Non-toxic | –
2300 nM | 1930 nM | Cn1cc(NC(=O)c2cc(NC(=O)c3ccc(/C=C/c4ccc5nonc5c4)cc3)cn2C)cc1C(=O)NCCN1CCOCC1 | – | Non-toxic | –
3070 nM | 1800 nM | Cn1cc(NC(=O)c2cc(NC(=O)c3cc(NC(=O)c4ccc(Cl)cc4Cl)cn3C)cn2C)cc1C(=O)NCCN1CCOCC1 | – | Non-toxic | –
2750 nM | 3320 nM | Cn1cc(NC(=O)c2cc(NC(=O)c3ccc(/C=C/c4cccc(F)c4)cc3)cn2C)cc1C(=O)NCCN1CCOCC1 | – | Non-toxic | –
3270 nM | 4310 nM | Cn1cc(NC(=O)c2cc(NC(=O)c3cc4ccccc4cn3)cn2C)cc1C(=O)NCCN1CCOCC1 | – | Non-toxic | –

IC50 (Plasmodium falciparum [3]) | IC50 (Plasmodium falciparum [4]; [10]) | Compound | selectivity ratio [2] | Activity (HEK293 [5]) | further results
– | – | Cn1cc(NC(=O)c2cc(NC(=O)c3cc(NC=O)cn3C)cn2C)cc1C(=O)NCCN1CCOCC1 | – | Non-toxic | inhibition at 20 µM (Plasmodium falciparum [6]): 25%; inhibition at 20 µM (Plasmodium falciparum [7]): 98%
289 nM | 322 nM | CC(C)CCc1sc(NC(=O)c2cc(NC(=O)c3cc(/C=C/c4ccc([N+](=O)[O-])cc4)cn3C)cn2C)nc1C(=O)NCCN1CCOCC1 | > 60 | – | cytotoxicity at 20 µM [1]: 54%
3340 nM | 3300 nM | Cn1cc(NC(=O)c2cc(NC(=O)c3ccc(/C=C/c4ccc(F)cc4)cc3)cn2C)cc1C(=O)NCCN1CCOCC1 | – | Non-toxic | –
– | – | CC(C)n1cc(NC(=O)c2cc(NC(=O)c3cnc(Cl)c(Cl)c3)cn2C)cc1C(=O)Nc1cc(C(=O)NCCCN(C)C)n(C)c1 | – | Non-toxic | inhibition at 20 µM (Plasmodium falciparum [6]): 65%; inhibition at 20 µM (Plasmodium falciparum [7]): 75%
2770 nM | 3380 nM | CN(C)CCCNC(=O)c1cc(NC(=O)c2cc(NC(=O)c3cc(NC(=N)c4cc5ccccc5cn4)cn3C)cn2C)cn1C | – | – | cytotoxicity at 10 µM [8]: 40%
2970 nM | 2730 nM | COc1ccnc(C(=N)Nc2cc(C(=O)Nc3cc(C(=O)Nc4nc(C(=O)NCCN5CCOCC5)c(C(C)C)s4)n(C)c3)n(C)c2)c1 | – | Non-toxic | –
4480 nM | 5490 nM | CN(C)CCCn1cnc(NC(=O)c2cc(NC(=O)c3cc(NC(=O)c4cc5ccccc5cn4)cn3C)cn2C)c1.O=C(O)C(F)(F)F | – | Non-toxic | –
636 nM | 469 nM | CC(C)c1sc(NC(=O)c2cc(NC(=O)c3cc(NC(=O)c4cc5ccccc5cn4)cn3C)cn2C)nc1C(=O)NCCN1CCOCC1 | > 42 | Non-toxic | –
2000 nM | 1410 nM | CC(C)CCc1sc(NC(=O)c2cc(NC(=O)c3cc4ccccc4cn3)cn2C)nc1C(=O)NCCCN(C)C | – | Non-toxic | –
923 nM | 780 nM | Cn1cc(NC(=O)c2cc(NC(=O)c3ccc(/C=C/c4ccncc4)cc3)cn2C)cc1C(=O)NCCN1CCOCC1 | > 26 | – | cytotoxicity at 20 µM [1]: 63%
1150 nM | 868 nM | COc1cccc(/C=C/c2cccc(C(=O)Nc3cc(C(=O)Nc4nc(C(=O)NCCCN(C)C)c(CCC(C)C)s4)n(C)c3)c2)c1 | 6.7 | – | IC50 (HEK293 [9]): 5.8 µM
588 nM | 390 nM | CC(C)CCc1sc(NC(=O)c2cc(NC(=O)c3ccc(/C=C/c4ccc5ccccc5c4)cc3)cn2C)nc1C(=O)NCCN1CCOCC1 | > 50 | Non-toxic | –
339 nM | 350 nM | CC(C)CCc1sc(NC(=O)c2cc(NC(=O)c3cc(/C=C/c4ccc([N+](=O)[O-])cc4)cn3C)cn2C)nc1C(=O)NCCCN(C)C | > 14 | – | cytotoxicity at 20 µM [1]: 60%
– | – | COc1cccc(C(=N)Nc2cc(C(=O)Nc3cc(C(=O)Nc4cc(C(=O)NCCCN5CCOCC5)n(C)c4)n(C)c3)n(C)c2)c1 | – | Non-toxic | inhibition at 20 µM (Plasmodium falciparum [6]): 35%; IC50 (Plasmodium falciparum [4]): Not Active
38 nM | 39 nM | Cn1cc(NC(=O)c2cc(NC(=O)c3ccc(/C=C/c4nc5ccccc5o4)cc3)cn2C)cc1C(=O)NCCN1CCOCC1 | > 514 | Non-toxic | –
– | – | CCN(CC)CCCC(C)Nc1ccnc2cc(Cl)ccc12 (configuration not stated) [CHLOROQUINE] | – | – | IC50 (HEK293 [9]): > 120 µM

Compound | IC50 (Plasmodium falciparum [3]) | IC50 (Plasmodium falciparum [4]; [10]) | selectivity ratio [2] | Activity (HEK293 [5]) | further results
C[C@@H]1CC[C@H]2[C@@H](C)C(=O)O[C@@H]3O[C@@]4(C)CC[C@@H]1[C@]32OO4 [ARTEMISININ] | 9 nM | – | > 10000 | – | IC50 (HEK293 [9]): > 120 µM
COc1ccc(C[C@H](N)C(=O)N[C@H]2[C@@H](O)[C@H](n3cnc4c(N(C)C)ncnc43)O[C@@H]2CO)cc1 [PUROMYCIN] | 62 nM | 60 nM | 6 | – | –
CCc1nc(N)nc(N)c1-c1ccc(Cl)cc1 [PYRIMETHAMINE] | > 120 nM | 8.45 nM | 955 | – | IC50 (HEK293 [9]): 8.07 µM
